Test results reported in publication PMC11322497 (Frontiers in Pharmacology, 2024).

Experiments:
[1] = Plasma free selvigaltin pharmacokinetics, acute 5-day treatment; assay type: in vivo, rabbit
Excerpt: (§1) The dose employed was established based on pilot pharmacokinetics studies in rabbits performed historically in naïve rabbits (data not shown). This first part of the study allowed the determination of the therapeutic benefits of selvigaltin following acute treatment, thus validating the model for further investigation of this mechanism in a chronic treatment protocol.
(§2) After 1 week of standard diet, animals (n = 12) were randomly assigned to the following groups (Table 1A): • Control rabbits continued to receive a regular diet (RD) for 12 weeks and were treated for 5 days (days 1–5, p.o.), during the last week before culling, with either vehicle; RD+1W Veh group] or GB1211 (30 mg/kg; RD + 1W 30 mg group); • Rabbits received a high fat diet (HFD) for 12 weeks (RD implemented with 0.5% cholesterol and 2.5% vegetable fat) and were treated for 5 days (days 1–5, p.o.), during the last week before culling, with either vehicle (HFD + 1W Veh group) or GB1211 (30 mg/kg; HFD + 1W 30 mg group).
Liver homogenates were prepared by homogenisation of 200 mg liver tissue/ml water using a Fisherbrand™ Homogenizer 150 (Thermo Fisher Scientific, Waltham, MA). Plasma or liver homogenate were mixed 1 part matrix with 3 parts acetonitrile prior to centrifugation at 10,000 g for 10 min at 18°C with supernatant diluted x4 with water prior to LC-MS/MS analysis.

[2] = tested on: high fat diet (HFD) rabbit model of metabolic-associated steatohepatitis (MASH); assay: HFD rabbit study, acute 5-day treatment at week 12: clinical and biochemical data, tolerability; assay type: in vivo; conditions: for ALT / AST / Glycaemia / Liver Weight / MAP / OGTT (iAUC) / Plasma Cholesterol / Plasma Triglycerides: 30 mg/kg p.o. q.d. 5 days, mean ± SD, n = 3
Method: A total number of 64 male New Zealand White rabbits (Charles River, Calco, Lecco, Italy), weighing about 3 kg, were individually caged under standard conditions in a temperature- and humidity-controlled room on a 12 h light/dark cycle. Water and food were unrestricted throughout the study. Experimental procedures were conducted using the facilities of the Department of Biomedical Experimental and Clinical Sciences “Mario Serio” and Department of Experimental and Clinical Medicine, and those of CE.S.A.L. (Centro Stabulazione degli Animali da Laboratorio), and NEUROFARBA Department, University of Florence, Italy.
as §1, §2
The oral glucose tolerance test (OGTT) was performed in accordance with the published method ([Filippi et al., 2009]). Briefly, after an overnight fast, a 50% glucose solution was orally administered to the animals at a dose of 1.5 g/kg. Blood samples were collected before and 15, 30, and 120 min after glucose loading. The incremental area under the curve (iAUC) was calculated by using GraphPad Prism (GraphPad Software, San Diego, CA). Blood samples for analyses were obtained from the marginal ear vein at week 8 or 12, in all groups. All blood samples were collected in standard conditions, before 10 a.m. after an overnight fasting. The blood was immediately centrifuged at 2,000 g for 20 min at 4°C and collected plasma/serum stored at −80°C until assayed. Plasma glucose, total cholesterol, triglycerides, transaminases (AST and ALT), and gamma-glutamyl transferase levels were measured using an automated system (Cobas 8000, Roche Diagnostics International AG, Rotkreuz, Switzerland). Serum alkaline phosphatase, albumin and total bilirubin levels were measured at IDEXX Laboratories (Kornwestheim, Germany), using an automated system (AU480, Beckman-Coulter, Brea, CA) with kinetic and photometric colour tests as per the following methods: alkaline phosphatase - alkaline buffer solution [2-amino-2-methylpropanol (AMP) in conjunction with p-nitrophenyl phosphate (pNPP)], according to the recommendation of the International Federation for Clinical Chemistry; albumin - the reaction of bromocresol green with albumin produces a colour complex, the absorption of which is measured dichromatically ([Doumas et al., 1971]); total bilirubin - a stabilized diazonium salt, 3,5-dichlorophenyldiazonium tetrafluoroborate (DPD), reacts with bilirubin to formazobilirubin, which absorbs at 570 nm ([Tolman and Rej, 1999]).
Mean arterial blood pressure (MAP) was measured by using a polyethylene catheter inserted into a femoral artery at week 8 or 12, after ketamine (10 mg/kg i.v.) and sodium thiopental (50 mg/kg i.v.) sedation.

Question: For `OC[C@H]1O[C@H](Sc2cncc(Br)c2)[C@H](O)[C@@H](n2cc(-c3cc(F)c(F)c(F)c3)nn2)[C@H]1O` [selvigaltin], which “steady state systemic plasma drug concentration vs rabbit galectin-3 binding KD” value ([1]; 30 mg/kg/day p.o., acute treatment) is on record?
Answer: Its value is about 40 fold.

Question: And the “plasma exposure in HFD+1W 30 mg vs RD+1W 30 mg” value ([1]; day 4 of treatment, 30 mg/kg p.o.)?
Answer: The value was “marginal increase in exposure”.

Question: And the tolerability ([2]; 30 mg/kg/day p.o., 5 days)?
Answer: The tolerability was “well tolerated”.

Question: What about the ALT ([2]; HFD rabbits) of the same compound?
Answer: The ALT was 97.33 ± 54.99 U/L.

Question: What about the AST ([2]; HFD rabbits) of the same compound?
Answer: Its AST is 231.67 ± 22.30 U/L.

Question: What about the Glycaemia ([2]; HFD rabbits) of the same compound?
Answer: The Glycaemia was 1.60 ± 0.14 gr/L.

Question: And the “Liver Weight” value ([2]; HFD rabbits)?
Answer: Its value is 3.94 ± 0.55 % of BW.

Question: And the MAP ([2]; HFD rabbits)?
Answer: The MAP was 130.83 ± 20.36 mmHg.

Question: And the “OGTT (iAUC)” value ([2]; HFD rabbits)?
Answer: Its value is 220.33 ± 8.63.

Question: And the “Plasma Cholesterol” value ([2]; HFD rabbits)?
Answer: The value was 2064.00 ± 268.00 mg/dL.

Question: What about the “Plasma Triglycerides” value ([2]; HFD rabbits) of the same compound?
Answer: The value was 88.00 ± 42.14 mg/dL.

Question: And the ALT ([2]; RD rabbits)?
Answer: The ALT was 36.33 ± 25.11 U/L.

Question: What about the AST ([2]; RD rabbits) of the same compound?
Answer: Its AST is 29.33 ± 5.86 U/L.

Question: And the Glycaemia ([2]; RD rabbits)?
Answer: Its Glycaemia is 1.12 ± 0.17 gr/L.

Question: And the “Liver Weight” value ([2]; RD rabbits)?
Answer: The value was 2.40 ± 0.33 % of BW.

Question: What about the MAP ([2]; RD rabbits) of the same compound?
Answer: Its MAP is 88.75 ± 14.09 mmHg.

Question: What about the “OGTT (iAUC)” value ([2]; RD rabbits) of the same compound?
Answer: The value was 165.90 ± 11.12.

Question: And the “Plasma Cholesterol” value ([2]; RD rabbits)?
Answer: Its value is 21.67 ± 3.51 mg/dL.

Question: What about the “Plasma Triglycerides” value ([2]; RD rabbits) of the same compound?
Answer: The value was 56.00 ± 21.28 mg/dL.
